Experimental data reported in patent US20250101039A1, “RIFAMYCIN DERIVATIVES FOR THE TREATMENT OF DISEASES” (priority 2022, published 2025).
≈ marks a conversion by molar mass, not a printed value. Read-outs that look alike come from different tables or passages of the source.

Assays:
A. baumannii = test: MIC by broth microdilution, A. baumannii (WT); type: cell-based, Acinetobacter baumannii
S. aureus = test: MIC by broth microdilution, S. aureus; type: cell-based, Staphylococcus aureus; conditions: for MIC S. aureus: cation adjusted Mueller Hinton broth, 35° C. 20 hours
[1] = RPMI medium supplemented with 10% FCS, 35° C. 20 hours

| SMILES | MIC A. baumannii (A. baumannii) [µg/mL] | MIC S. aureus (S. aureus) [µg/mL] | MIC A. baumannii (A. baumannii; [1]) [µg/mL] | MIC (S. aureus; Staphylococcus aureus, 20 h, read-out: MIC S. aureus, cation adjusted Mueller Hinton broth, 35° C. 20 hours) [µg/mL] |
| --- | --- | --- | --- | --- |
| CO[C@H]1/C=C/O[C@@]2(C)Oc3c(C)c(O)c4c(c3C2=O)C2=NC3(NC2=C(NC(=O)/C(C)=C\C=C\[C@H](C)[C@H](O)[C@@H](C)[C@@H](O)[C@@H](C)[C@H](OC(C)=O)[C@@H]1C)C4=O)C1CC2CC3CN(C2)C1 (some centres unmarked) [Compound 3A] | 0.25 (≈ 0.297 µM) | 0.008 (≈ 0.00949 µM) |  |  |
| CO[C@H]1/C=C/O[C@@]2(C)Oc3c(C)c(O)c4c(c3C2=O)C2=NC3(CC5CCC(C3)N5C(C)C)NC2=C(NC(=O)/C(C)=C\C=C\[C@H](C)[C@H](O)[C@@H](C)[C@@H](O)[C@@H](C)[C@H](OC(C)=O)[C@@H]1C)C4=O (single isomer, unassigned) [Compound 14A] |  | 0.016 (≈ 0.0186 µM) | 0.25 (≈ 0.291 µM) |  |
| CO[C@H]1/C=C/O[C@@]2(C)Oc3c(C)c(O)c4c(c3C2=O)C2=NC3(CC5CCC(C3)N5C)NC2=C(NC(=O)/C(C)=C\C=C\[C@H](C)[C@H](O)[C@@H](C)[C@@H](O)[C@@H](C)[C@H](OC(C)=O)[C@@H]1C)C4=O (single isomer, unassigned) [Compound 13A] |  |  | 0.03 (≈ 0.0361 µM) | 0.03 (≈ 0.0361 µM) |
| CO[C@H]1/C=C/O[C@@]2(C)Oc3c(C)c(O)c4c(c3C2=O)C2=NC3(CC5CCC(C3)N5)NC2=C(NC(=O)/C(C)=C\C=C\[C@H](C)[C@H](O)[C@@H](C)[C@@H](O)[C@@H](C)[C@H](OC(C)=O)[C@@H]1C)C4=O (single isomer, unassigned) [Compound 12A] |  | 0.06 (≈ 0.0734 µM) | 0.06 (≈ 0.0734 µM) |  |
| COC1C=COC2(C)Oc3c(C)c(O)c4c(c3C2=O)C2=NC3(CC5CCC(C3)N5C3CCCC3)NC2=C(NC(=O)C(C)=CC=CC(C)C(O)C(C)C(O)C(C)C(OC(C)=O)C1C)C4=O (mixture of isomers) [15 (A + B)] |  | 0.03 | 0.25 |  |
| COC1C=COC2(C)Oc3c(C)c(O)c4c(c3C2=O)C2=NC3(NC2=C(NC(=O)C(C)=CC=CC(C)C(O)C(C)C(O)C(C)C(OC(C)=O)C1C)C4=O)C1CC3CN(C)C1 (mixture of isomers) [5 (A + B)] |  | 0.125 | 8 |  |
| CO[C@H]1/C=C/O[C@@]2(C)Oc3c(C)c(O)c4c(c3C2=O)C2=NC3(NC2=C(NC(=O)/C(C)=C\C=C\[C@H](C)[C@H](O)[C@@H](C)[C@@H](O)[C@@H](C)[C@H](OC(C)=O)[C@@H]1C)C4=O)C1CN2CC3CN(C1)C2 (some centres unmarked) [Compound 19] |  | 0.004 (≈ 0.00474 µM) | 1 (≈ 1.18 µM) |  |
| COC1C=COC2(C)Oc3c(C)c(O)c4c(c3C2=O)C2=NC3(NC2=C(NC(=O)C(C)=CC=CC(C)C(O)C(C)C(O)C(C)C(OC(C)=O)C1C)C4=O)C1CCC3CN(C)C1 (mixture of isomers) [1 (A + B)] |  | 0.016 | 0.25 |  |
| CO[C@H]1/C=C/O[C@@]2(C)Oc3c(C)c(O)c4c(c3C2=O)C2=NC3(CC5CCC(C3)N5C(C)C)NC2=C(NC(=O)/C(C)=C\C=C\[C@H](C)[C@H](O)[C@@H](C)[C@@H](O)[C@@H](C)[C@H](OC(C)=O)[C@@H]1C)C4=O (single isomer, unassigned) [Compound 14B] |  | 0.008 (≈ 0.00931 µM) | 0.016 (≈ 0.0186 µM) |  |
| CO[C@H]1/C=C/O[C@@]2(C)Oc3c(C)c(O)c4c(c3C2=O)C2=NC3(CCCNCC3)NC2=C(NC(=O)/C(C)=C\C=C\[C@H](C)[C@H](O)[C@@H](C)[C@@H](O)[C@@H](C)[C@H](OC(C)=O)[C@@H]1C)C4=O (single isomer, unassigned) [Compound 6A] |  | 0.016 (≈ 0.0199 µM) | 0.125 (≈ 0.155 µM) |  |
